Two compounds from ChEMBL document CHEMBL5678818, “Discovery of potent SOS1 inhibitors that block RAS activation via disruption of the RAS-SOS1 interaction” (Proc Natl Acad Sci U S A, 2019) can be followed below.

Experiment [1] has as its target T1, Serine/threonine-protein kinase Sgk2 (Homo sapiens) (UniProt Q9HBY8).
T1 sequence (whole entry): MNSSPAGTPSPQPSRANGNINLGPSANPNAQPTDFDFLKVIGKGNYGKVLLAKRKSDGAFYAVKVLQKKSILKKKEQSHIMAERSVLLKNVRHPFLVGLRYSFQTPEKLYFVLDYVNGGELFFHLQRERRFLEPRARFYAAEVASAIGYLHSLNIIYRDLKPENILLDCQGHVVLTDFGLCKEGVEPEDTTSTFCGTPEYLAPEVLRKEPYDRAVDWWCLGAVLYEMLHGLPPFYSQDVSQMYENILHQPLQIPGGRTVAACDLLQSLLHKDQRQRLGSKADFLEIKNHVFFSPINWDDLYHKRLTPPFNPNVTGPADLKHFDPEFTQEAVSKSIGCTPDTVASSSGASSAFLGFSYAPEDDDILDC
The experiment can be described thus: Inhibition of SGK2 (unknown origin) assessed as residual activity at 1000 nM by KINOMEscan analysis relative to control.

Experiment [2] has as its target Interferon-induced, double-stranded RNA-activated protein kinase (Homo sapiens) (UniProt P19525). Put plainly: Inhibition of PRKR (unknown origin) assessed as residual activity at 1000 nM by KINOMEscan analysis relative to control.
In experiment [3] the target is T2, Inhibitor of nuclear factor kappa-B kinase subunit epsilon (Homo sapiens) (UniProt Q14164).
T2 sequence (whole entry): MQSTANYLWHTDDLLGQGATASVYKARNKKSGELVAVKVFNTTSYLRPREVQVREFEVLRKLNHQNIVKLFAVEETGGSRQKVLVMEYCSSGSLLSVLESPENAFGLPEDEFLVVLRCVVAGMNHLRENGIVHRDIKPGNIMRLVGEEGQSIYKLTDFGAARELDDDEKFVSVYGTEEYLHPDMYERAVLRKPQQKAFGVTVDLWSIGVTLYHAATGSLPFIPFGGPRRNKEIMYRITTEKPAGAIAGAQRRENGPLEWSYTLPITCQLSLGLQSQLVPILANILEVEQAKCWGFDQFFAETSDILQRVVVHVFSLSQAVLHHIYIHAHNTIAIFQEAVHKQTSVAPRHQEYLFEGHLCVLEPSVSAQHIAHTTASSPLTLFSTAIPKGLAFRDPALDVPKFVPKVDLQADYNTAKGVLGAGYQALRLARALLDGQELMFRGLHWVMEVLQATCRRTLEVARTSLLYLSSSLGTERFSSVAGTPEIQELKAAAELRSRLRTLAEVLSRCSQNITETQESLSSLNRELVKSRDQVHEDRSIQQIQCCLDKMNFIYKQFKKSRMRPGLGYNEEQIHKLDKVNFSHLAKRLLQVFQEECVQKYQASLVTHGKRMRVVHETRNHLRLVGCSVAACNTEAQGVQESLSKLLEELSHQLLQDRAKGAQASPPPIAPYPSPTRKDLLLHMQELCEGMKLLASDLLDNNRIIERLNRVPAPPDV
Put plainly: Inhibition of IKK-epsilon (unknown origin) assessed as residual activity at 1000 nM by KINOMEscan analysis relative to control.

Experiment [4] deals with Serine/threonine-protein kinase B-raf (Homo sapiens) (UniProt P15056). Put plainly: Inhibition of BRAF (unknown origin) assessed as residual activity at 1000 nM by KINOMEscan analysis relative to control.
Sequence of Serine/threonine-protein kinase B-raf (Homo sapiens) (P15056 whole entry, canonical isoform): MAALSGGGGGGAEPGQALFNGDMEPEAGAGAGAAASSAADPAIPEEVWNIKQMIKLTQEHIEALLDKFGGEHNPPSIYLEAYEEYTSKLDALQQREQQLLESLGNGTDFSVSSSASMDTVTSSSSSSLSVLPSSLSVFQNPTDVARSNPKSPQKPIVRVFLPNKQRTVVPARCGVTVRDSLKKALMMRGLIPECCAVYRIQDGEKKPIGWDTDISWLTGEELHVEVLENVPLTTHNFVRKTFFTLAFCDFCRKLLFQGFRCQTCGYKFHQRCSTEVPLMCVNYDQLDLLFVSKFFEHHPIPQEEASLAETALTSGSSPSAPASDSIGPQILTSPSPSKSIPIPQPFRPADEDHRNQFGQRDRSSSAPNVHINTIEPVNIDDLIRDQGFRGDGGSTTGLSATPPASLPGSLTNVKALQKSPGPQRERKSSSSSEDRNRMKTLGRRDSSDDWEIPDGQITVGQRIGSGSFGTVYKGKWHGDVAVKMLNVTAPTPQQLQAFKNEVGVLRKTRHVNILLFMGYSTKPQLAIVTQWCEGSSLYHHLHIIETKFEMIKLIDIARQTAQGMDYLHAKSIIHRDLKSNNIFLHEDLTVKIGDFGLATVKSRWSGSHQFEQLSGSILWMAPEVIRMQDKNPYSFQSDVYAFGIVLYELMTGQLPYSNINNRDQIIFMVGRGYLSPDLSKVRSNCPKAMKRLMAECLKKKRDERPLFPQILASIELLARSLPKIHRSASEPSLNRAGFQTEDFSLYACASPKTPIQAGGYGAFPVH
Experiment [5] concerns the target Casein kinase I isoform epsilon (Homo sapiens) (UniProt P49674). Put plainly: Inhibition of CSNK1E (unknown origin) assessed as residual activity at 1000 nM by KINOMEscan analysis relative to control.
In experiment [6] the target is Calcium/calmodulin-dependent protein kinase kinase 1 (Homo sapiens) (UniProt Q8N5S9). Put plainly: Inhibition of CAMKK1 (unknown origin) assessed as residual activity at 1000 nM by KINOMEscan analysis relative to control.
Sequence of Calcium/calmodulin-dependent protein kinase kinase 1 (Homo sapiens) (Q8N5S9 whole entry, looked up): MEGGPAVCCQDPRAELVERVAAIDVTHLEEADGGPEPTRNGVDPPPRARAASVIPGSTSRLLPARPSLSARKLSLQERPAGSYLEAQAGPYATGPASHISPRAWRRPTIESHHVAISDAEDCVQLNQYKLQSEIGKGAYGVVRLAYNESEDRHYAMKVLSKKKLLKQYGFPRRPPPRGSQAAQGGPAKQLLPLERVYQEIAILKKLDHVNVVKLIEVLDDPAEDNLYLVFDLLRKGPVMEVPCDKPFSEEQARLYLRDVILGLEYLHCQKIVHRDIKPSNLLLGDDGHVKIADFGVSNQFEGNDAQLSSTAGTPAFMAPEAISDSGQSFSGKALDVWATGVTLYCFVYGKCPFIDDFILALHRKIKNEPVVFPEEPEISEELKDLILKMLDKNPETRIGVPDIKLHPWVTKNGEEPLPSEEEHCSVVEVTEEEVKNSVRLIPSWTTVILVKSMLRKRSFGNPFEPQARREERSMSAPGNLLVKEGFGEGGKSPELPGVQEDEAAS
Experiment [7] addresses T3, Calcium/calmodulin-dependent protein kinase type IV (Homo sapiens) (UniProt Q16566).
T3 sequence (whole entry): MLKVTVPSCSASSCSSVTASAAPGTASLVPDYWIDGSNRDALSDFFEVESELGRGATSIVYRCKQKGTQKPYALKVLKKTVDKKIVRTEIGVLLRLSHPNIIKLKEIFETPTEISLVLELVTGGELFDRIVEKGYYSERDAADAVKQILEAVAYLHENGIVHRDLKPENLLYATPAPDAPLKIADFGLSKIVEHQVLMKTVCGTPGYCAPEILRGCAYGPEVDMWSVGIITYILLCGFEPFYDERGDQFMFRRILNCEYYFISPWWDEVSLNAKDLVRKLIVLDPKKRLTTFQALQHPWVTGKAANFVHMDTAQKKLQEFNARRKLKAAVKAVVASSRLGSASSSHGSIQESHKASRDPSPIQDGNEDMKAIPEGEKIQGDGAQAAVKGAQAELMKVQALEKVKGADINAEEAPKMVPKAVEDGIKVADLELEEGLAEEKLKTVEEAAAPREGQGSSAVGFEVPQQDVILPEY
Put plainly: Inhibition of CAMK4 (unknown origin) assessed as residual activity at 1000 nM by KINOMEscan analysis relative to control.

Experiment [8] concerns the target T4, Receptor-interacting serine/threonine-protein kinase 4 (Homo sapiens) (UniProt P57078).
T4 sequence (whole entry): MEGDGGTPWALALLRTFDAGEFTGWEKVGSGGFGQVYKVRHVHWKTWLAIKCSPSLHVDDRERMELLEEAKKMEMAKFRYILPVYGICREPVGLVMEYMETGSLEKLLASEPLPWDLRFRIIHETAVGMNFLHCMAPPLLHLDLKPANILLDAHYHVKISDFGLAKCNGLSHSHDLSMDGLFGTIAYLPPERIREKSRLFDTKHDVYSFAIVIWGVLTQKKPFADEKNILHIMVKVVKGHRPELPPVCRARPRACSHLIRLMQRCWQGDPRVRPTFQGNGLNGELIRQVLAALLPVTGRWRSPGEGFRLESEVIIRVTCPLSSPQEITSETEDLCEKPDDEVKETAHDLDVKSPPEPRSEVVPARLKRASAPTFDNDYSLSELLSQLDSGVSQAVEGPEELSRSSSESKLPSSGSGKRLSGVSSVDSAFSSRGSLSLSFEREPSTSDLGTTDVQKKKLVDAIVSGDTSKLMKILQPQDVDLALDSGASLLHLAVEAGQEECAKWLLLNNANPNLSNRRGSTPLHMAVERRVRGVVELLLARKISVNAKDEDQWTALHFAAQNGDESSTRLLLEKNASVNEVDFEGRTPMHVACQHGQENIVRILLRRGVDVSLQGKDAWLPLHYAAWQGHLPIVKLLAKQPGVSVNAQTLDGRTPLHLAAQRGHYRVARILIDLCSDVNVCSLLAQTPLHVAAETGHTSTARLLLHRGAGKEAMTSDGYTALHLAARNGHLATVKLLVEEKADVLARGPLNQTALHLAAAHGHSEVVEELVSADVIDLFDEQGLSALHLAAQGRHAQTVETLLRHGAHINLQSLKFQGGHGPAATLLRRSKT
The experiment can be described thus: Inhibition of RIPK4 (unknown origin) assessed as residual activity at 1000 nM by KINOMEscan analysis relative to control.

Sequence of Interferon-induced, double-stranded RNA-activated protein kinase (Homo sapiens) (P19525 whole entry): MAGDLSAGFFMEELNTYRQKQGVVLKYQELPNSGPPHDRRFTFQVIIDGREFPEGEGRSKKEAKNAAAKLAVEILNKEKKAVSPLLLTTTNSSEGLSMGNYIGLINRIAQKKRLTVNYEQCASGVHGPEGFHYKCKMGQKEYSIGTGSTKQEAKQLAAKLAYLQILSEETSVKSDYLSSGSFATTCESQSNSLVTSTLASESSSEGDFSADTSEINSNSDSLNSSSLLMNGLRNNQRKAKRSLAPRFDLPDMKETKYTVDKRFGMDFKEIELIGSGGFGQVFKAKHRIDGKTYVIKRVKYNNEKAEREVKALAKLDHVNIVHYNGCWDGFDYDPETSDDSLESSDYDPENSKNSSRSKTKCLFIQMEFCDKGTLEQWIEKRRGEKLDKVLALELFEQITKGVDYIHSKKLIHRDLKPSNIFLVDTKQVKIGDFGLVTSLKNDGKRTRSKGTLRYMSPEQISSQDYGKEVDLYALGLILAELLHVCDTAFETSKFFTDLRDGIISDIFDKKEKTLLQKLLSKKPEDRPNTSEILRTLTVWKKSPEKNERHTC
Sequence of Casein kinase I isoform epsilon (Homo sapiens) (P49674 whole entry, looked up, canonical isoform): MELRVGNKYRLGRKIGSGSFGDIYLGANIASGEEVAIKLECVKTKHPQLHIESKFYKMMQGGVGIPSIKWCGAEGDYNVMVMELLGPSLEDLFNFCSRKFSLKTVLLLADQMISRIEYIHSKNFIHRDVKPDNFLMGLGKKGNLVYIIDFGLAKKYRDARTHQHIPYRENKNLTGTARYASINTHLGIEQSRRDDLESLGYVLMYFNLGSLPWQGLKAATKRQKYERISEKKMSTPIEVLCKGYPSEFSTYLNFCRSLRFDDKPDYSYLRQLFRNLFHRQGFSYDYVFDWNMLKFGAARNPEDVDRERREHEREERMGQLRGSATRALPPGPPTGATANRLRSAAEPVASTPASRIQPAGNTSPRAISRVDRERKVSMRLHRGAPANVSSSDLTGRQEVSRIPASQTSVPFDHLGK

With `COc1cc2ncnc(N[C@H](C)c3cccc4ccccc34)c2cc1OC`, the Activity in experiment [1] worked out at 51%; in experiment [2], 92%; in experiment [3] it was 98%; in experiment [4], 91%; in experiment [5] it was 100%; in experiment [6] it was 97%. Further, the Activity in experiment [7] worked out at 100%; in experiment [8], 93%.

On to `COc1cc2nc(C)nc(N[C@H](C)c3cccc(-c4cn[nH]c4)c3)c2cc1OC`, for which the Activity in experiment [1] amounted to 94%; in experiment [2], 72%; in experiment [3] it was 88%; in experiment [4], 75%; in experiment [5], 97%; in experiment [6], 73%. In addition, the Activity in experiment [7] came out at 92%; in experiment [8], 70%.
